This note sets out measurements from US20190160035A1, “METHOD OF TREATMENT” (QBIOTICS LIMITED, priority 2016, published 2019).

The test system of data set [1] is cutaneous MCT or subcutaneous MCT. Briefly: Example 1: RECIST v.1.1 tumor response after a single intratumoral Compound 1 injection (0.4 mL/cm^3 of tumor) with prophylactic and supportive medications. The data set is classed as in vivo, Canis lupus familiaris (dog). An excerpt: (§1) Study dogs were managed similarly and with due regard for their welfare. Animals were enrolled in the study in accordance with instructions provided in Australian Pesticides and Veterinary Medicines Authority (APVMA) small-scale trials permit PER7250 (unregistered drug use). All animals were client-owned, treated by Australian registered veterinarians, and cases managed under their direct supervision. An enrolled dog could be removed from the study prior to study completion under the following circumstances: • 1. If at any time during the study, in the opinion of the attending veterinarian, the dog's welfare is at risk due to non-response of the tumor to Compound 1 treatment or due to a serious adverse event, the veterinarian could elect to withdraw the dog from the study. Following withdrawal, the dog's attending veterinarian could then administer supportive treatment and veterinary care that they deem is appropriate and in the best interest of the animal. • 2. The owner elected to voluntarily withdraw the dog from the study.
Dogs were selected for the study if they met the criteria in Table 1 below.
Compound 1 was prepared for intratumoral injection by preparation of a composition comprising 1 mg/mL Compound 1 in a 40% propylene glycol solution with 30 mM acetate buffer, pH 4.2. The dosage level was 0.4 mL/cm^3 of tumor.
The drug was administered to each dog as 0.4 mL per cm^3 of tumor volume (40% v/v tumor) as determined on the day of dosing (Day 0). Tumor volume was determined using the modified ellipsoidal calculation=½×length×width×depth (cm) (Monga et al, 2000; Celikoglu et al, 2008).
Wherever possible, the tumor and a 2 cm border surrounding the tumor was shaved prior to treatment. To deliver the drug, the needle of the dosing syringe was inserted into the tumor at the injection point and moved in a radial manner in 2- and 3-dimensions. Treatment administration was recorded on the individual “Case Report Form”. Study dogs were clinically examined at 2-4 and 24 hours, and 7 (±2), 14 (±2) and 28 (±2) days post-treatment (and unscheduled visits at attending veterinarian discretion).
Each supervising veterinarian was given latitude to provide and record prophylactic and supportive medications as deemed appropriate for managing potential paraneoplastic events and tumor site necrosis following treatment with Compound 1. […]
Determination of efficacy was based on objective tumor measurements made according to the Response Evaluation Criteria in Solid Tumors (RECIST) v.1.1 guideline (Eisenhauer et al, 2009) using the longest unidirectional tumor measurement (diameter). […] Measurements were recorded using digital calipers at pre-treatment and at 7(±2), 14(±2) and 28(±2) days post treatment. […]

Data set [2] in a line: Example 1: safety evaluation (clinical parameters, adverse events graded by VCOG-CTCAE). The format is in vivo, Canis lupus familiaris (dog). As for the experimental part:
Clinical parameters such as bodyweight (kg), rectal temperature (° C.), heart rate (HR) per minute, respiratory rate (RR) per minute, general demeanor and body function (e.g. eating, drinking, urine and stools), were collected on each enrolled dog at screening, immediately pre-treatment, at approximately 2-4 and 24 hours post-treatment, and at 7(±2), 14(±2) and 28(±2) days post treatment. An adverse event (AE) was defined as any unfavorable and unintended sign, symptom, or disease temporally associated with the use of the drug, whether or not related to the product (VCOG-CTCAE, 2011). AE were graded according to the VCOG-CTCAE classification which is a descriptive severity scale (grade system) used for AE reporting in dogs treated with antineoplastic therapy.
With the exception of swelling and pain, local tissue pathology as a result of treatment (i.e. tumor necrosis) was not considered an adverse event (AE). AEs such as rapid breathing, mild tachycardia and post treatment lethargy are generally considered to be the result of the powerful local inflammatory response and systemic activation of the dog's immune response during the treatment response phase. In this study, 44 AEs were identified in 15 event types. The majority of identified AEs (28 out of 44; […]) were represented by the ‘mild’ VCOG-CTCAE classification Grade 1 with no intervention required. With the exception of dog C03-T-07, a level of minimal medical intervention was required in only 3 cases. […] With the exception of dog C03-T-07, all reported AEs were transient in nature—resolved by 24-48 h post treatment in the majority of cases.

Data set [3] relates to soft tissue sarcoma (STS). Kind of data set: Example 6: treatment of soft tissue sarcoma with intratumoral Compound 1, tumor response. The format is in vivo, dogs. The settings on record: per dog, Compound 1 1.0 mg/mL intratumoral, first treatment.
Excerpt: as §1, with “Dogs were selected for the study if they met the criteria in Table 1 (Example 1) but where the dog has at least one STS. Study” for “Study”, “managed” for “managed similarly and”, “welfare.” for “welfare. Animals were enrolled in the study in accordance with instructions provided in Australian Pesticides and Veterinary Medicines Authority (APVMA) small-scale trials permit PER7250 (unregistered drug use).”, “The owner elected to voluntarily withdraw the dog from the study.” left out
• 1. […] The total calculated volume of the selected STS was confirmed as ≤12.5 cm3 (determined as ½×length (cm)×width (cm)×depth (cm)). • 5. The calculated dose of drug for the dog was confirmed as ≤0.25 mg Compound 1 per kg at the Day 0 visit (maximum dose of 5 mg Compound 1). • 6. The drug was provided to veterinarians as a 1 mg/mL Compound 1 formulation in ready to use form. • 7. […] Treated tumors were observed regularly and observations recorded at days 1, 7 (+2), 14 (+2) and 28 (+2) days post-treatment. • 10. […]

For the compound `C/C=C(\C)C(=O)O[C@@H]1[C@@H](C)[C@@]2(O)[C@H]([C@@H]3C(C)(C)[C@]13OC(=O)[C@@H](C)CC)[C@@H]1O[C@]1(CO)[C@@H](O)[C@]1(O)C(=O)C(C)=C[C@H]12` [Compound 1, 12-tigloyl-13-(2-methylbutanoyl)-6,7-epoxy-4,5,9,12,13,20-hexahydroxy-1-tigliaen-3-one], the “Number of dogs with partial response (PR)” value in data set [1] (Day 28, 11 dogs available of 12 treated) is recorded as 3. In addition, the “Number of dogs with complete response (CR)” value in data set [1] (Day 28, 11 dogs available of 12 treated, 1.0 mg/mL, 0.4 mL/cm^3) came to 6. Also, the “Tumor cytology in the autopsied injection site” value in data set [1] (dog C03-T-07, Day 4, personal correspondence with attending veterinarian) is reported as “no tumor cytology was identified”. Further, the RECIST classification result is on record as “PR (partial response (PR, at least 30% decrease in the longest diameter of target lesion))” in data set [1] (one value per dog, Day 28, single intratumoral dose, 1.0 mg/mL, 0.4 mL/cm^3 tumor) and “PR (partial response (PR, at least 30% decrease in the longest diameter of target lesion))” in data set [3]. Besides, the “Number of AEs identified” value in data set [2] (12 dogs, 15 event types) came to 44. Moreover, in data set [2] (28 out of 44), the “Share of AEs of VCOG-CTCAE Grade 1” value was found to be 61.3%. In addition, the “Dogs that died during the course of the study” value in data set [2] (dog C03-T-07, Day 4, veterinarian did not believe Compound 1 directly contributed) was found to be 1. In addition, the “Time by which reported AEs resolved post treatment” value in data set [2] (majority of cases, except dog C03-T-07) was 24 to 48 h. In addition, in data set [2] (out of 44 AEs), the “Number of AEs of ‘mild’ VCOG-CTCAE Grade 1 (no intervention required)” value was 28. The “Cases requiring minimal medical intervention” value in data set [2] (with the exception of dog C03-T-07) is on record as 3.
